Structure (SMILES) | melting point
CCn1c(C)c(C(=O)c2ccc(C)c3ccccc23)c2ccccc21 | 136 to 137 °C
O=C1COCCN1CCn1c2ccccc2c2c(N3CCCC3)nc(N3CCCC3)nc21 | 179 to 180 °C
CCCN(c1ncccc1N)C1CCN(Cc2ccccc2)CC1 | 73 to 74 °C
C=CCCn1cc(Br)cnc1=O | 127 to 128 °C
CCCCN(CCCC)c1nc(Nc2cccc3c2C(=O)c2ccccc2C3=O)nc(N(CCCC)CCCC)n1 | 128 to 133 °C
FC(F)(F)c1nc(-c2ccccc2)c(-c2ccccc2)s1 | 94 to 97 °C
CSc1cc(C(=O)CBr)ccc1C | 85 to 86 °C
CN(Cc1ccco1)Cn1c(Cl)c(C#N)c(-c2cccc(Cl)c2F)c1-c1ccccc1 | 63 to 64 °C
Cc1ccc([S@@](C)=O)cc1 | 75 to 76 °C
COc1cccc2c1C[C@H]1C[C@@H](CCN3CCN(C(c4ccccc4)c4ccccc4)CC3)CN(C)[C@@H]1C2 | 140 to 148 °C
CC(C)(C1OCCO1)C(O)(COc1cccc2ccccc12)Cn1ccnc1 (centres undefined) | 126 °C
Cn1cc(C(=O)NCc2ccc(Cl)cc2)c(=O)c2cc(CN3CCC(F)(F)CC3)ccc21 | 214 to 215 °C
O=[N+]([O-])c1cccnc1Nc1ccccc1F | 97 °C
CC1C(=O)N(c2ccccc2O)Sc2ccccc21 (centres undefined) | 162 to 164 °C
CN(C)Cc1cc(C(=O)c2cccs2)cc(C(C)(C)C)c1O | 132 to 134 °C
CC(C)(C)OC(=O)N1CCC[C@H]1COc1cccc2[nH]ncc12 | 125 °C
CCn1cc(C(=O)NCCCN(C)C)c(=O)c2ccc(I)cc21 | 161 to 162 °C
COC(=O)c1cccc(C(=O)OC)c1S(=O)(=O)NC(=O)Nc1nc(OC)cc(OC)n1 | 164 to 167 °C
COc1ccc(OC)c2c1C(=O)c1c-2[nH]c2ccc(O)cc12 | > 260 °C
COC(=O)C1=C(S(=O)(=O)NC(=O)Nc2nc(OC)nc(OC)n2)CCC1 | 168 to 169 °C
O=C(O)c1ccc(NC(=O)N(Cc2ccccc2)Cc2ccccc2)cc1 | 210 to 214 °C
Fc1ccc(OC(=S)Nc2ccc(-c3ncn(-c4ccc(OC(F)(F)F)cc4)n3)cc2)cc1 | 164 to 169 °C
O=c1ccsn1C(O)C(Cl)(Cl)Cl (centres undefined) | 117 to 118 °C
CC1(C)OCCC2C(C3(O)CCSCC3)C(=O)N21 (centres undefined) | 133 to 134 °C
COC(c1ccccc1)C(C)([N+](=O)[O-])[N+](=O)[O-] (centres undefined) | 53 to 55 °C

Structure (SMILES) | melting point
CN1C(=O)c2cc(Nc3ccccc3)c(Nc3ccccc3)cc2C1=O | 195 to 196 °C
COc1cc(CCCn2cncn2)ccc1OCc1coc(/C=C/c2ccccc2)n1 | 113 to 114 °C
CCCCc1nc2cccc(CC#N)c2n1Cc1ccccc1Cl | 124 to 125 °C
O=S1(=O)N=C(Nc2ccccn2)Nc2ccc(Cl)cc21 | > 310 °C
CC1=CC(C)=Nc2c(ccc3nc(O)c(O)nc23)N1 | > 300 °C
O=c1[nH]c2ccccc2c2c(C(O)CC3CCNCC3)n(-c3ccccc3)nc12 (centres undefined) | 258 to 261 °C
CC(C)Oc1ccc(COc2ccc(CC(=O)O)cc2Cl)cc1Cl | 129 to 130 °C
CCc1cc(CCN2C(=O)c3ccccc3C2=O)c(=O)[nH]c1C | 232 to 233 °C
C=CCCc1ccc(C(=O)O)c(O)n1 | 151 to 155 °C
O=C(O)c1cc2cc(Cl)c(Cl)cc2nc1N[C@H](Cc1c[nH]c2ccccc12)C(=O)O | > 250 °C
CCCCCCCCCCCCCC(=O)NC1CC(C)(C)N(CC#N)C(C)(C)C1 | 106 °C
CC(C)(C)OC(=O)N1CCC(c2cnc3oc(-c4ccc(C(F)(F)F)cc4)nc3c2)CC1 | 184 to 188 °C
CCOC(=O)C(C)Oc1ccc(Nc2ccc(C(F)(F)F)cc2[N+](=O)[O-])cc1 (centres undefined) | 61 to 63 °C
COc1ccc(N2CCN(c3ccc(N(C)C4=NC(C)(C)CS4)cc3)CC2)cc1 | 167 °C
O=C1CCC(N2Cc3cc(CNC(=O)NC4CCCCC4)ccc3C2=O)C(=O)N1 (centres undefined) | 265 to 267 °C
C#CC(Cn1cnnn1)n1nnc2cc3c(=O)n(C4CC4)nnc3cc2c1=O (centres undefined) | > 195 °C
CS(=O)(=O)c1cc(-c2ccccc2)ncn1 | 109 to 111 °C
COc1ccc(C2=NN(Cc3ccc(C(=O)NC4CCCC4)cc3)C(=O)CC2)cc1OC | 147 °C
CCCCOc1c(CNC(=O)OC(C)(C)C)n(CC(C)C)c(=O)c2ccc(C(=O)N(C)OC)cc12 | 142 to 143 °C
C=C(C)CN(CC)c1nc(C)[nH]c2cc(-c3ccccc3)nc1-2 | 148 to 150 °C
CCOC(=O)C(C#N)=C(c1ccc(F)cc1)c1ccc(F)cc1 | 114 to 116 °C
CSc1nc2ccc(Br)cc2c(=O)[nH]1 | 230 °C
CC(C)(C)c1cc(C2N(c3ccccc3)CCN2c2ccccc2)cc(C(C)(C)C)c1O | 144 °C
CCOC(=O)Cc1cccc(C(=O)c2ccccc2)c1NC(C)=O | 133 to 134 °C

Source: a melting point compilation (Tetko et al.; mined from patent text by program, amines drawn as free bases though some values may be those of a salt)
